# Patent US12628858B2, “Therapy for colorectal and small intestine cancers” (Cornell University, priority 2019, dated 2026)
# Tested on: Tumors from APC-/- mice
# Assay: 13C isotopic tracing in APC-/- tumors ex vivo (LC-MS/MS)
# Format: cell-based, mouse
# Conditions: 10 min ex vivo
Compound,percentage of fully labeled lactate,"F1P 13C-labeled at all six positions (M+6), percentage of labeling"
"O=[13CH][13C@H](O)[13C@@H](O)[13C@H](O)[13C@H](O)[13CH2]O [^13C-glucose, D-[U-^13C6]-Glucose]",30.2%,–
"O=[13C]([13CH2]O)[13C@@H](O)[13C@H](O)[13C@H](O)[13CH2]O [^13C-fructose, D-[U-^13C6]-Fructose]",–,47.1%
